One assay relates to M. faecalis. Put plainly: Antibacterial disk zone of inhibition, M. faecalis (as headed). Format: cell-based, Streptococcus faecalis 05045. As to conditions: Enterococcus faecalis, read-out: Inhibition Zone diameter; for zone of inhibition at 10 µg/mL: 0.01 mg/ml; for zone of inhibition at 100 µg/mL: 0.1 mg/ml. As to the method: (§1) Vegetative bacterial isolates are maintained on agar slants or in liquid media, hereby designated as inoculum media. The cultures are transferred at regular intervals in such media. (See Table IV for the corresponding inoculum media of each culture.) The organisms are generally transferred either onto agar slants or into liquid inoculum media and incubated at 37° C. (at 28° C. with Xanthomonas sp.) overnight (18-20 hours).
(§2) The microbial cells from the overnight agar slants are then scraped off and suspended in saline solution (0.85% NaCl). The microbial concentrations are adjusted to a light transmission of 8.6% using a PerkinElmer Model 35 spectrophotometer (550 nm). For the organisms that are maintained in liquid media, one of two procedures is followed: (1) the culture suspension is first centrifuged at 5000 rpm for five minutes. The pellet is resuspended in 0.85% saline to 8.6% light transmittancy; (2) an aliquot of the culture suspension is to be added directly to the assay medium.
(§3) A given molten-agar assay medium, maintained in a flask at approximately 45° C., is inoculated with 0.16-10 ml of an appropriate cell or spore suspension per 100 ml of medium. Fifty ml of the inoculated medium is poured into a Bio-Assay dish (A/S Nunc; Gibco Laboratories Catalog Number 240835) and spread evenly across the bottom, then allowed to solidify at room temperature. Each agar dish is inverted and refrigerated until used.
(§4) The compounds or samples to be tested are dissolved in suitable solvents, e.g., alcohols, dimethylsulfoxide, or N,N-dimethylformamide. The samples are generally dissolved so that the final concentration of the solvent is <10%.* The compounds are tested at different concentrations: 3,000; 1,000; 500; 100; and 10 mcg/ml. Paper discs (12.7 mm diameter) saturated with a given concentration of test compound are placed onto the seeded agar dishes with a pair of forceps.
(§5) The disked agar dishes are incubated at 37° C. (28° C. for Xanthamonas sp.) for 18-20 hours. Active compounds show a zone of inhibition around the disc. The diameter of the zone is measured in mm. The zone diameter of active compounds ranges from a minimum of 13.5 mm to as high as 60 mm. The size of the zone diameter generally reflects the activity of the compound: the larger the zone the greater the activity.

The subject of the next assay is B. catarrhalis. The experiment in a line: Antibacterial disk zone of inhibition, B. catarrhalis. Format: cell-based, Branhamella catarrhalis 03596. As to conditions: Moraxella catarrhalis, read-out: Inhibition Zone diameter; for zone of inhibition at 500 µg/mL: 0.5 mg/ml; for zone of inhibition at 10 µg/mL: 0.01 mg/ml; for zone of inhibition at 3000 µg/mL: 3.0 mg/ml; for zone of inhibition at 100 µg/mL: 0.1 mg/ml. Here is the method:
as §1, §2, §3, §4, §5

A further assay has as its system S. lutea. The experiment in a line: Antibacterial disk zone of inhibition, S. lutea (as headed). The assay is classed as cell-based, Micrococcus luteus 05064. The following applies: Micrococcus luteus, read-out: Inhibition Zone diameter; for zone of inhibition at 3000 µg/mL: 3.0 mg/ml; for zone of inhibition at 100 µg/mL: 0.1 mg/ml; for zone of inhibition at 10 µg/mL: 0.01 mg/ml. As to the method:
as §1, §2, §3, §4, §5

For assay [1], the system named is HCT-8 (human colon adenocarcinoma) cells. Put plainly: In vitro activity against HCT-8 human colon adenocarcinoma cells. Format: cell-based. As to conditions: HCT-8, 60-65 hours with compound, 37° C., read-out: ID50 against human colon adenocarcinoma. Here is the method:
HCT-8 (human colon adenocarcinoma) cells are trypsinized using Trypsin-EDTA. A single cell suspension is achieved by passing the cells through a 26 gauge needle with a 20 cc syringe. A cell suspension is prepared using RPMI 1640+10% FCS+50 μg/ml garamycin with a cell concentration of approximately 30,000 cells/ml. The cell suspension is dispensed in Linbro 24-well plates; 1 ml/well. The plates are incubated for approximately 48 hours at 37° C. in a 5% CO2 atmosphere. At this time test compounds are added in the appropriate concentration. Five μl of the 200 μg/ml stock solution is added to each well in a primary test. Ten μl of the appropriate dilution is added to each well for a titration test. The plates are reincubated an additional 60-65 hours at 37° C. in a 5% CO2 atmosphere. The test is read by lysing the cells using a mix of cationic surfactant, glacial acetic acid and sodium chloride. […] of the lysed cell suspension from each well is added to 8 ml of diluent. Each sample is read on the Coulter counter (ZBI model). The activity of each sample is measured as a percentage of the controls and the data is reported as ID50, that is the molar quantity of drug required to kill 50% of the tumor cells.

Another assay deals with P388 Leukemia. The experiment in a line: In vivo lymphocytic leukemia P388 test in mice. Also on record: species or system CD2 F1 mice. The following applies: intraperitoneal, two single doses four days apart. As to the method:
The in vivo lymphocytic leukemia P388 test is carried out using the test system of the United States National Cancer Institute. The animals used are either male or female CD2 F1 mice. There are six to seven animals per test group. The tumor transplant is by intraperitoneal injection of dilute ascitic fluid containing cells of lymphocytic leukemia P388. The test compounds are administered intraperitoneally in two single doses with a four-day interval between doses at various dose levels following tumor inoculation. The animals are weighed and survivors are recorded on a regular basis for 30 days. A ratio of survival time for treated (T)/control (C) animals is calculated. The criterion for efficacy is T/C×100>125%. The positive control compound in this test is 5-fluorouracil. See Cancer Chemotherapy Reports, Part 3, 3, 1 (1972) for a comprehensive discussion of the protocol.

Another assay deals with B. subtilis. Put plainly: Antibacterial disk zone of inhibition, B. subtilis. The assay is classed as cell-based, Bacillus subtilis 04555. As to conditions: Bacillus subtilis, read-out: Inhibition Zone diameter; for zone of inhibition at 10 µg/mL: 0.01 mg/ml; for zone of inhibition at 3000 µg/mL: 3.0 mg/ml; for zone of inhibition at 100 µg/mL: 0.1 mg/ml. Here is the method: as §1, §2
Isolate spore suspensions (Bacillus sp.) are maintained at 4° C. These suspensions serve as the inoculum media for assays.
as §3, §4, §5

The next assay relates to L1210 cells. Put plainly: In vitro antitumor screening on L1210 murine leukemia cell line (growth, Coulter counter). Format: cell-based. The following applies: Mus musculus, L1210, 72 h; three days, 37° C., 5% CO2; read-out: L1210 Leukemia in vitro ID50. As to the method: L1210 cells, a murine leukemia cell line, were grown in RPMI 1640 supplemented with 5% fetal bovine serum and gentamicin (50 μg/ml).
Drug dilutions were prepared in the appropriate solvent and 20 μl of each dilution were added to 24-well Linbro tissue culture plates, followed by the addition of M 2.0 ml of cell suspension containing 3×10^4cells per ml. Solvent and medium controls were included in each test. After incubation at 37° C. for three days in 5% CO2, the contents of each well were removed and the cells counted in a ZBI Coulter counter. Percent growth was calculated relative to the controls and the levels of drug activity were expressed as ID50 in moles per liter using probit paper.

The subject of another assay is X. phaseoli. Put plainly: Antibacterial disk zone of inhibition, X. phaseoli. Format: cell-based, Xanthomonas phascoli 06002. As to conditions: Xanthomonas; 3.0 mg/ml; read-out: Inhibition Zone diameter. Here is the method:
as §1, §2, §3, §4, §5

The record followed here is patent US4532240A, “Diaminopyrimidines” (Warner-Lambert Company, priority 1983, dated 1985).

On to `Cc1nc(N)nc(N)c1N1CCN(c2ccc(S(C)(=O)=O)cc2)CC1` [Example 9, 6-Methyl-5-[4-[4-(methylsulfonyl)phenyl]-1-piperazinyl]-2,4-pyrimidinediamine, hydrate (10:2)], for which the zone of inhibition at 10 µg/mL in the assay on M. faecalis is 18 mm; in the assay on B. subtilis, 29 mm. Further, in the assay with B. catarrhalis, the zone of inhibition at 500 µg/mL stood at 14 mm. The zone of inhibition at 3000 µg/mL in the assay on S. lutea and with X. phaseoli was 0 mm throughout. Moreover, the figures for the IC50 (in assay [1]; with L1210 cells) were 61 nM and 5.6 nM, respectively. Besides, the “T/C × 100” value with P388 Leukemia (6.25 mg/kg) worked out at 128%; in the assay on P388 Leukemia (12.5 mg/kg), 131%; with P388 Leukemia (25 mg/kg) it was 140%; with P388 Leukemia (50 mg/kg), 198%.

Take `Cc1nc(N)nc(N)c1N1CCN(c2ccc(C(=O)N[C@@H](CCC(=O)O)C(=O)O)cc2)CC1` [drawing 21]: the zone of inhibition at 3000 µg/mL with M. faecalis (3.0 mg/ml), in the assay with S. lutea and in the assay on X. phaseoli was 0 mm in each case. Besides, the zone of inhibition at 10 µg/mL in the assay with B. catarrhalis stood at 25 mm; in the assay with B. subtilis it was 22 mm.

For the compound `Cc1nc(N)nc(N)c1N1CCN(c2ccc(C#N)cc2)CC1` [Example 19, 5-[4-(4-cyanophenyl)-1-piperazinyl]-6-methyl-2,4-pyrimidinediamine], the zone of inhibition at 100 µg/mL in the assay with M. faecalis was found to be 15 mm. Also, the zone of inhibition at 3000 µg/mL in the assay on B. catarrhalis, in the assay with S. lutea, with B. subtilis and with X. phaseoli was 0 mm in each case. Besides, the IC50 is greater than 1000 nM in assay [1] and 1500 nM with L1210 cells.

In the case of `CCc1nc(N)nc(N)c1N1CCN(c2ccc(C(=O)NC(CCC(=O)O)C(=O)O)cc2)CC1` (stereo not shown) [drawing 23], the values for the zone of inhibition at 100 µg/mL in the assay with M. faecalis and with B. subtilis were 14 mm and 20 mm, respectively. In the assay on B. catarrhalis, the zone of inhibition at 10 µg/mL is 14 mm. The zone of inhibition at 500 µg/mL in the assay with S. lutea (0.5 mg/ml) worked out at 14 mm. Further, in the assay with X. phaseoli, the zone of inhibition at 3000 µg/mL was 15 mm.

As for `CCCc1nc(N)nc(N)c1N1CCN(c2ccc(C(=O)NC(CCC(=O)O)C(=O)O)cc2)CC1` (stereo not shown) [drawing 24], the zone of inhibition at 100 µg/mL in the assay on M. faecalis was 16 mm. In addition, the values for the zone of inhibition at 3000 µg/mL in the assay on B. catarrhalis, with B. subtilis and in the assay with X. phaseoli were 18 mm, 0 mm and 0 mm, respectively. In addition, the zone of inhibition at 1000 µg/mL in the assay on S. lutea (1.0 mg/ml) was determined as 16 mm.

For `CCCc1nc(N)nc(N)c1N1CCN(c2ccc(C(=O)OCC)cc2)CC1` [Example 18, 4-[4-(2,4-Diamino-6-propyl-5-pyrimidinyl)-1-piperazinyl]benzoic acid, ethyl ester], the zone of inhibition at 10 µg/mL with M. faecalis worked out at 15 mm. For the same compound, the zone of inhibition at 100 µg/mL in the assay on B. catarrhalis came out at 15 mm; with S. lutea it was 16 mm. Moreover, the IC50 was 210 nM in assay [1] and 9.3 nM in the assay with L1210 cells. The “T/C × 100” value with P388 Leukemia (25 mg/kg) came to 120%; with P388 Leukemia (50 mg/kg), 149%. For the same compound, the zone of inhibition at 3000 µg/mL in the assay on B. subtilis and in the assay with X. phaseoli was 0 mm throughout.

Consider `CC(=O)c1ccc(N2CCN(c3c(C)nc(N)nc3N)CC2)cc1` [Example 5, 5-[4-(4-acetylphenyl)-1-piperazinyl]-6-methyl-2,4-pyrimidinediamine, hydrate (100:18)], for which the values for the zone of inhibition at 100 µg/mL with M. faecalis, in the assay on B. catarrhalis and in the assay on B. subtilis were 16 mm, 24 mm and 23 mm, respectively. Further, in the assay with S. lutea, the zone of inhibition at 10 µg/mL is 14 mm. The IC50 in assay [1] was 510 nM; in the assay on L1210 cells it was 5 nM. Also, the “T/C × 100” value with P388 Leukemia (6.25 mg/kg) is 123%; in the assay on P388 Leukemia (12.5 mg/kg), 144%; with P388 Leukemia (25 mg/kg), 181%; in the assay on P388 Leukemia (50 mg/kg) it was 250%. Moreover, in the assay on X. phaseoli, the zone of inhibition at 3000 µg/mL came to 0 mm.

For the compound `CCCc1nc(N)nc(N)c1N1CCN(c2ccc(C(=O)O)cc2)CC1` [Example 15, 4-[4-(2,4-Diamino-6-propyl-5-pyrimidinyl)-1-piperazinyl]benzoic acid], in the assay with M. faecalis, the zone of inhibition at 10 µg/mL was 15 mm. Also, in the assay on B. catarrhalis, the zone of inhibition at 500 µg/mL was 19 mm. Besides, the zone of inhibition at 100 µg/mL in the assay on S. lutea turned out to be 16 mm. The results for the IC50 (in assay [1]; with L1210 cells) were 280 nM and 43 nM, respectively. For the same compound, the zone of inhibition at 3000 µg/mL with B. subtilis and in the assay on X. phaseoli was 0 mm throughout.

For the compound `CCc1nc(N)nc(N)c1N1CCN(c2ccc(C(=O)O)cc2)CC1` [Example 11, 4-[4-(2,4-Diamino-6-ethyl-5-pyrimidinyl)-1-piperazinyl]benzoic acid], the zone of inhibition at 10 µg/mL in the assay with M. faecalis amounted to 19 mm; in the assay on S. lutea it was 16 mm. The zone of inhibition at 500 µg/mL in the assay on B. catarrhalis was 27 mm. The IC50 was 570 nM in assay [1] and 10 nM in the assay with L1210 cells. For the same compound, in the assay on B. subtilis, the zone of inhibition at 100 µg/mL was found to be 18 mm. Moreover, the zone of inhibition at 3000 µg/mL in the assay on X. phaseoli came to 0 mm.
